In the experiment the target is Muscarinic acetylcholine receptor M3 (Homo sapiens, UniProt P20309). Description: Muscarinic Receptor Binding Assay: The study of binding to human muscarinic M1, M2, M3, M4 and M5 receptors was performed using commercial membranes (Perkin Elmer) prepared from CHO-K1 cells. Radioligand binding experiments were conducted in 96 polypropylene well plates in a total volume of 200 ul. All reagents were dissolved in assay binding buffer (PBS with calcium and magnesium, SIGMA), except compounds that were dissolved in DMSO 100%. Non-specific binding (NSB) was measured in the presence of 1 uM atropine. [3H]-NMS was used as the radioligand at a concentration of 1 nM for M2, M3 and M5 and 0.3 nM for M1 and M4. [3H]-NMS and antagonists were incubated with membranes that express human muscarinic receptors M1, M2, M3, M4 and M5 at concentrations of 8.1, 10, 4.9, 4.5 and 4.9 ug/well, respectively. After an incubation period of two hours with gentle shaking, 150 ul of the reaction mix were transferred to 96 GF/C filter plates (Millipore), previously treated with wash buffer. Format: cell-based.
Muscarinic acetylcholine receptor M3, sequence (P20309 whole entry): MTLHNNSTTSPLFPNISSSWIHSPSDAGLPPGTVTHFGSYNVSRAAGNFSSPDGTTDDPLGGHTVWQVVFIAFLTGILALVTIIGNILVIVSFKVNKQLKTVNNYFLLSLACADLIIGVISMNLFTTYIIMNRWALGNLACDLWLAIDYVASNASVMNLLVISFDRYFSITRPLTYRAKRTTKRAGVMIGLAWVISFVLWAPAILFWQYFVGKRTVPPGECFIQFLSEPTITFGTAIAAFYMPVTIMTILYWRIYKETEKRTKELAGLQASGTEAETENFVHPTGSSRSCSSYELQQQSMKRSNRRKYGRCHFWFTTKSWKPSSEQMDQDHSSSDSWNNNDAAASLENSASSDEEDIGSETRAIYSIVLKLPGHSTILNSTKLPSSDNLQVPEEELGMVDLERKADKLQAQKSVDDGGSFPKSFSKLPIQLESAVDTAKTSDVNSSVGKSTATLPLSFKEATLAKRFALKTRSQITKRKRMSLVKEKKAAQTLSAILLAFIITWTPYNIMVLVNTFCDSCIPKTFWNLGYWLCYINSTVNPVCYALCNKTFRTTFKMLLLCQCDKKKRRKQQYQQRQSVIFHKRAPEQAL

As to `CN(CCCn1nnc2cc(CNC[C@H](O)c3ccc(O)c4c3OCC(=O)N4)ccc21)[C@H]1CC[C@H](OC(=O)[C@](O)(c2cccs2)C2CCCC2)CC1`, the IC50 came out at 0.4 nM.

By IC50 is commonly meant the concentration that gives 50% inhibition.

(Values after ChEMBL document CHEMBL3886468, “Cyclohexylamine derivatives having β2 adrenergic agonist and M3 muscarinic antagonist activities” (2016).)
